For orientation: Ki means the equilibrium dissociation constant of an inhibitor or competing ligand from its target.

The record followed here is PMC6222450, “Computer-Aided Studies for Novel Arylhydantoin 1,3,5-Triazine Derivatives as 5-HT6 Serotonin Receptor Ligands with Antidepressive-Like, Anxiolytic and Antiobesity Action In Vivo” (Molecules : A Journal of Synthetic Chemistry and Natural …, 2018).

The target in data set [1] is T1, 5-HT1A (Homo sapiens, UniProt P08908).
T1 construct: expressed in transfected cells; host or cells: HEK-293
T1 sequence (P08908 1-422): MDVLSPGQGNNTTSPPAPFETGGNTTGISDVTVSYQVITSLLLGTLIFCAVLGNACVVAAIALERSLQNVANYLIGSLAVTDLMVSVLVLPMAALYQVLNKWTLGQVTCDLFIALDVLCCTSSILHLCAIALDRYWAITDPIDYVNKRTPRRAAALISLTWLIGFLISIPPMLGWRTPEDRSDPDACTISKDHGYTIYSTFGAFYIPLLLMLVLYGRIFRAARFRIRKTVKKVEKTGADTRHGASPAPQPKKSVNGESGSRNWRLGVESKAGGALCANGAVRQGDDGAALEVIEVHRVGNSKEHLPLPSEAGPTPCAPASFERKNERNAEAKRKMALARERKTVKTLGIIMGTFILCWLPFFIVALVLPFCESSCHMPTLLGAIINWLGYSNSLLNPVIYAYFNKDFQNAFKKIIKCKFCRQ
The experiment in a line: Radioligand binding assay, 5-HT1A, [3H]-8-OH-DPAT. The note with it: human receptor stably expressed in HEK-293 cells.

The target in data set [2] is T2, 5-HT2A (Homo sapiens, UniProt P28223).
T2 construct: expressed in transfected cells; host or cells: HEK-293
The experiment in a line: Radioligand binding assay, 5-HT2A, [3H]-Ketanserin. The note with it: human receptor stably expressed in HEK-293 cells.

For data set [3], the system named is HEK-293 cells. The experiment in a line: Toxicity in vitro, MTS test. The class given is cell-based. The note with it: 0.1 μM–100 μM, 72 h. How it is done:
The preliminary evaluation of the safety profile for the most promising 5-HT6R ligands 6 and 26 was performed in vitro with the HEK-293 eukaryotic cell line. The compounds examined were dissolved in culture growth media and incubated with cells for 72 h. Next, the MTS test was applied to determine the viability of the cells. […] The reference cytostatic drug doxorubicin (DX) at the very low concentration 1 μM was also cytotoxic.
The ATCC CRL 1573 HEK-293 cells were seeded in 96-well plates (NuncTM) at a concentration of 1 × 10^4 cells/well in 200 μL in Dulbecco’s Modified Eagle’s Medium (Gibco®) supplemented with 10% fetal bovine serum (Gibco®), and cultured at 37 °C in an atmosphere containing 5% of CO2 for 24 h to reach 60% confluence. The 10 mM stock solutions of 5-HT6R ligands 6 and 26 in DMSO were diluted into fresh growth medium and added into the microplates at the final concentrations 0.1 μM –100 μM. […] The cytostatic drug doxorubicin (Sigma-Aldrich) at the concentration 1 μM was used as a reference. After 72 h of incubation 20 μL of CellTiter 96® AQueous Non-Radioactive Cell Proliferation Assay (MTS) (Promega®) was added to each well and the cells were incubated under the same conditions for 2 h. The absorbance of the samples was measured using a microplate reader EnSpire (PerkinElmer, Waltham, MA, USA) at 490 nm. Statistical significance was analyzed by GraphPad Prism™ software v. 5.01 (GraphPad Software, La Jolla, CA, USA) using One-way ANOVA and Bonferroni’s Multiple Comparison Post Test.
For orientation: Formazan colour is commonly taken as a measure of viable cells.

Data set [4] deals with male Wistar rats. The experiment in a line: Forced swim test (FST). The format is in vivo, rat. The note with it: i.p. 60 min before test, 5 min observation, p < 0.05. As for the experimental part: The experiments were performed on male Wistar rats (200–220 g—behavioural test or 170–190 g—metabolic assay) obtained from an accredited animal facility at the Jagiellonian University Medical College, Poland. The animals were housed in a group of four in a controlled environment (ambient temperature 21 ± 2 °C; relative humidity 50–60%; 12 h light/dark cycles (lights on at 8:00). Standard laboratory food (LSM-B) and filtered water were freely available (behavioral tests). Animals were assigned randomly to treatment groups. All the experiments were performed by two observers unaware of the treatment applied between 9:00 and 14:00 on separate groups of animals. All animals were used only once.
Compounds were suspended in 1% Tween 80 immediately before administration in a volume of 2 mL/kg—behavioral tests or 1 mL/kg—body weight measures. Compounds were administered intraperitoneally (i.p.) 60 min before testing—behavioral tests. Control animals received vehicle (1% Tween 80) according to the same schedule.
The experiment was carried out according to the method of Porsolt et al.. […] On the following day (24 h later), the rats were replaced in the cylinder and the total duration of immobility was recorded during the whole 5-min test period. […]

Data set [5] deals with T3, 5-HT7bR (Homo sapiens, UniProt P34969).
T3 construct: expressed in transfected cells; host or cells: HEK-293
The experiment in a line: Radioligand binding assay, 5-HT7bR, [3H]-5-CT. To be noted: human 5-HT7b receptor stably expressed in HEK-293 cells; read-out: Ki 5-HT7 [3H]-5-CT.

T3 sequence (P34969 1-432 limits assumed): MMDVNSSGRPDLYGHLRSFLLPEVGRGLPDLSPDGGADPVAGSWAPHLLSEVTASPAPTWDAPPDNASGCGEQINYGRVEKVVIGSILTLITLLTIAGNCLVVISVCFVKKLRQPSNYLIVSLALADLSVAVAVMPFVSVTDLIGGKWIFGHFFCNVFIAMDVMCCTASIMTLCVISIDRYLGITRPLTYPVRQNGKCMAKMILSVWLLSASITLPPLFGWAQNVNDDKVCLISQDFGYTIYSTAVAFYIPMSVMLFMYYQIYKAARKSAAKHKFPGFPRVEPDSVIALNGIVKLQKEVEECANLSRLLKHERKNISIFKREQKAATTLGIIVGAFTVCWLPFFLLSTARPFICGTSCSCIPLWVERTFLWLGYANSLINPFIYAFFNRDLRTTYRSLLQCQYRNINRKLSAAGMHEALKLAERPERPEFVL
T2 sequence (P28223 whole entry): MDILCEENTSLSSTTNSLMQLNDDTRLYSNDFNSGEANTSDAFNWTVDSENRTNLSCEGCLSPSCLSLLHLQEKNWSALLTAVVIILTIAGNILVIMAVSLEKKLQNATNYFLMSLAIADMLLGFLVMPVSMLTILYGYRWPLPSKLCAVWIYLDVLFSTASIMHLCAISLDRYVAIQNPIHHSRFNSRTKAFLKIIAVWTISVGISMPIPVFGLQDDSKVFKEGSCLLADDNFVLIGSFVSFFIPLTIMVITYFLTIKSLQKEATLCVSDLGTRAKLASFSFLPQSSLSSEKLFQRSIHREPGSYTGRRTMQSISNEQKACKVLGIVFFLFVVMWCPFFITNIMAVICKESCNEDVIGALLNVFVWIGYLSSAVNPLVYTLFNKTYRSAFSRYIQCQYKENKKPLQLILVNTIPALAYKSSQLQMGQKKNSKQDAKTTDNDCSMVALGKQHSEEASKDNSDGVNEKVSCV

In the case of `CN1CCN(c2nc(N)nc(CN3C(=O)NC(C)(c4ccc5ccccc5c4)C3=O)n2)CC1` (centres unmarked) [Compound 26, 3-((4-Amino-6-(4-methylpiperazin-1-yl)-1,3,5-triazin-2-yl)methyl)-5-methyl-5-(naphthalen-2-yl)imidazolidine-2,4-dione], the inhibition constant (Ki) in data set [1] is 14.2 µM; in data set [2], 17.2 µM; in data set [5], 0.514 µM. The “toxicity in HEK-293 cells” value in data set [3] is “no significant toxicity”. Besides, the “decrease of immobility time vs. vehicle treated group” value in data set [4] is listed as “about 20%”.
